# Measured values published in article PMC4640567, “Cinnamic Acid Bornyl Ester Derivatives from Valeriana wallichii Exhibit Antileishmanial In Vivo Activity in Leishmania major-Infected BALB/c Mice” (PLoS ONE, 2015).
# What was measured:
# L. major promastigotes [1] = test: Transmission electron microscopy, mitochondrial swelling; format: cell-based, Leishmania major; conditions: 100 μM, 2 h
# Experimental: (§1) L. major parasites harvested from blood agar cultures were washed twice with Dulbecco’s phosphate-buffered saline (DPBS; Invitrogen, Darmstadt, Germany) and centrifuged at 3.000 × g for 10 min. The pellet was suspended in RPMI 1640 medium at a final concentration of 1 × 10^8 cells/ml. Cells were treated with 1% DMSO, 122.7 μM miltefosine (1-hexadecylphorylcholine; apoptosis inducer), or 100 μM of the tested compounds 1 and 2 in a final volume of 200 μl in 96 well plates. Samples were incubated at 27°C in 5% CO2 for several time points between 30 min and 24 h. Transmitted light microscopic, transmission electron microscopic (TEM), and flow cytometric techniques were used to find phenotypic patterns caused by the treatment with the tested compounds.
# L. major promastigotes were incubated for 2 h in the presence of DMSO, 100 μM of compound 1 and compound 2, respectively. After the incubation period, the parasites were harvested, contrasted and embedded following the procedure described previously. Ultrathin sections were mounted on 300-mesh grids, stained with uranyl acetate and lead citrate, and analyzed with an EM 10 transmission electron microscope (Carl Zeiss AG, Oberkochen, Germany). To describe morphological changes in a statistical manner, six photographs with approximately 50 cells were taken and the percentage of cells with swollen mitochondria per treatment was determined.
# L. major promastigotes [2] = test: MitoTracker Red CMXRos staining, flow cytometry; format: cell-based, Leishmania major; conditions: 100 μM
# Experimental: L. major promastigotes were harvested from blood-agar cultures and washed twice with DPBS (900 × g for 5 min at RT). 2 × 10^6 promastigotes were dissolved in 180 μl RPMI complete medium and seeded in a 96 well plate. Parasites were incubated with 20 μL of compound 1 (final concentration: 100 μM), compound 2 (final concentration: 100 μM) and with 20 μL of DMSO, respectively, for 30 min, 45 min, 60 min, or 120 min at 27°C in a 5% CO2. After incubation 2 μl of MitoTracker Red CMXRos (final concentration: […]) (Life Technologies, Darmstadt, Germany) was added for 15 min at 27°C. Samples were directly acquired using a MACSQuant Analyzer (Miltenyi Biotech, Bergisch Gladbach, Germany) and MitoTracker-positive parasites were analyzed using MACS Quant Analyzing software.
# [3] = AlamarBlue cytotoxicity, HEK 293 T cells; format: cell-based; conditions: human
# Experimental: (§2) BMDM were generated in complete RPMI medium as described previously. On day six, the cytotoxicity against 2 × 10^5 cells/ml was tested at increasing concentrations of compounds 1 and 2 for 48 h. Human embryonic kidney HEK 293 T cells (ATCC, Wesel, Germany) were cultured in Dulbecco´s Modified Eagle Medium (DMEM) (Life Technologies, Darmstadt, Germany), with 10% FCS (PAA Laboratories, Germany). According to the standard operating procedures (SOP) within the Collaborative Research Center 630 (SFB 630) 2 × 10^4 HEK 293 T cells/ml were tested at increasing concentrations of compounds 1 and 2 for 48 h. Human liver carcinoma HepG2 cells (ATCC) were cultured in RPMI medium (Gibco) with 10% FCS. 1 × 10^5 cells/ml HepG2 were tested at increasing concentrations of 1 and 2 for 72 h according to the SOPs. The AlamarBlue assay was performed as described above for L. major parasites.
# [4] = AlamarBlue cytotoxicity, HepG2 cells; format: cell-based; conditions: human, read-out: Cytotoxicity (μM) HEP G2
# Experimental: as §2
# L. donovani = test: Preliminary studies in L. donovani infected BALB/c mice; format: in vivo; conditions: need further evaluation
# L. major amastigotes = test: microbe, parasite or virus in culture; format: cell-based; conditions: Leishmania major; intracellular amastigotes in BMDM, 24 h; read-out: Cytotoxicity (μM) L. major amastigotes (IC50)
# Experimental: Luciferase-transgenic (Luc-tg) L. major has been generated as described previously. The virulence of Luc-tg L. major was maintained by passage in female BALB/c mice and promastigotes were grown in vitro in blood agar cultures with addition of 50 μg/mL hygromycin B using the same conditions as described above.
# A detailed protocol of antileishmanial investigations against intracellular L. major amastigotes residing within bone marrow-derived macrophages (BMDM) is described elsewhere. Briefly, 2 × 10^5/ml BMDM were infected with Luc-tg L. major promastigotes at a ratio of 1:15 for 24 h. These infected BMDM were cultured in the absence or presence of increasing concentrations of the tested compounds 1 and 2 for 24 h prior to the supplement of Britelite plus (PerkinElmer, Waltham, MA, USA) for 5 min. Britelite plus is a very sensitive assay for the quantification of firefly luciferase in Leishmania parasites. The luminescence was measured using a Victor X Light 2030 luminometer (PerkinElmer, Waltham, MA, USA).
# [5] = system: L. donovani promastigotes; test: MTT assay, L. donovani (AG83) promastigotes; format: cell-based; conditions: Leishmania donovani, tested at 10, 50, 100 μM, read-out: Cytotoxicity (μM) L. donovani promastigotes (IC50)
# Experimental: L. donovani promastigotes (strain: MHOM/IN/1983/AG83) were obtained from the Indian Institute of Chemical Biology, Kolkata, India. Promastigotes were cultured in Schneider’s insect medium (Sigma-Aldrich Co., St. Louis, USA) as described elsewhere.
# Antiparasitic activities of compounds 1 and 2 dissolved in dimethyl sulfoxide (DMSO, E. Merck, India) against L. donovani (AG83) promastigotes were determined by a quantitative colorimetric assay using the 3-(4, 5- dimethylthiazol-2-yl)-2, 5-diphenyl tetrazolium bromide (MTT) (Sisco Research Laboratory, Mumbai, India) test as described elsewhere. The compounds were tested at concentrations of 10 μM, 50 μM, and 100 μM and IC50 values (concentration of compound, which inhibited at least 50% cell metabolic activity) for each compound were determined from respective dose–response curves using Origin 5.0 software (Microcal Software, Inc., Northampton, MA, USA).
# L. major promastigotes [6] = test: Diff-Quik staining and transmitted light microscopy, cell morphology; format: cell-based, Leishmania major; conditions: 100 μM
# Experimental: as §1
# After incubation for 30 min, 1 h, 2 h, 4 h, and 24 h in the presence of the tested compounds 1 and 2, promastigotes were harvested and centrifuged in a Cytospin 3 centrifuge (Shandon, Frankfurt, Germany) on microscope slides at 253 × g for 5 min at room temperature (RT). Cytospin preparations of cells were stained using the Differential Quick Stain (Diff-Quik) dye (Medion Diagnostics AG, Duedingen, Switzerland), according to the manufacturers’ protocol with some modifications. Diff-Quik stains the leishmanial nuclei and the kinetoplasts dark purple and the cytoplasm light purple allowing the observation of phenotypic changes within the parasite. Briefly, air-dried cells were fixed by dipping the slides 5 times for 3 seconds in fixative solution. Subsequently the slides were stained with Solution I following Solution II (from Diff-Quik kit) and air-dried between each staining steps. Finally, the samples were rapidly dipped once in ultra-pure water (produced by a TKA purification system apparatus, Niederelbert, Germany) to remove excessive staining solutions. The air-dried cells were analyzed by transmitted light microscopy under a 50× objective on a Nikon ECLIPSE 50i microscope equipped with a digital camera (Nikon, Tokyo, Japan). The images were processed using NIS Elements D software (Nikon).
Compound,Counted parasites with mitochondrial swelling (TEM) (L. major promastigotes [1]) [%],"MitoTracker-positive cells, percentage of DMSO control (100%) (L. major promastigotes [2]; 60 min) [%]","MitoTracker-positive cells, percentage of DMSO control (100%) (L. major promastigotes [2]; 120 min) [%]",IC50 at 48 h [3] [µM],IC50 at 72 h [4] [µM],Antileishmanial in vivo activity (L. donovani),IC50 (L. major amastigotes) [µM],IC50 [5] [µM],Time after which vacuolization and changes in cell morphology were observable (L. major promastigotes [6])
"CC1(C)C2CCC1(C)C(OC(=O)C=Cc1ccccc1)C2 (single isomer, unassigned; (-)) [Compound 1, (-)-Bornyl cinnamate]",39,75,63,83.1,> 100,promising antileishmanial in vivo activities,10.9,15.6,30 min
"CC1(C)C2CCC1(C)C(OC(=O)CCc1ccccc1)C2 (single isomer, unassigned; (-)) [Compound 2, (-)-bornyl 3-phenylpropionate]",36,75.2,60.2,> 100,> 100,promising antileishmanial in vivo activities,89.1,> 100,1 h
